Data from patent publication US12678451B2, “Cannabinoid and omega fatty acid compositions and methods of using” (GreenWay Herbal Products, LLC, priority 2019, dated 2026).
Like-named read-outs stand apart in the source and are kept apart here.

Columns and labels:
[1] = test system: cytokine levels in differentiated THP-1 cells treated with LPS; test: THP-1 human cellular LPS cytokine assay, four independent experiments, per cytokine; format: cell-based; settings: 2 µM; LPS 20 ng/mL
[2] = test system: cytokine levels in differentiated THP-1 cells treated with LPS; test: THP-1 human cellular LPS cytokine assay, three independent experiments, total averaged suppression
DPPH antioxidant assay = format: biochemical; settings: 100 μM
Procedure: The ability of the cannabinoids to act as potential antioxidants was assessed using the 2,2-diphenyl-1-picrylhydrazyl (DPPH) antioxidant assay. The cannabinoids CBDA, CBD, CBDVA, CBDV, CBG, THCV, and the 1:1 CBD:CBDA mixture had the highest antioxidant activities with radical scavenging activities of 38.19%, 48.00%, 43.81%, 44.21%, 44.28%, 45.71%, and 43.74%, respectively.
The 2,2-diphenyl-1-picrylhydrazyl (DPPH) free radical (Alfa Aesar) was prepared at 0.1 mM in ethanol. The cannabinoids were tested at a final concentration of 100 uM. 2 uL of 7.5 mM stock solutions of the cannabinoids to be tested in DMSO were added to 148 uL of 0.1 mM DPPH to achieve a final concentration of 100 μM in the assay. Ascorbic acid (Thermo Scientific) at a final concentration of 10 mg/ml was used as a positive control. The reaction mixture was incubated in the dark at room temperature for 1 hour, the absorbance of the mixture was read at 517 nm using a Spectra Max 5M microplate reader (Molecular Devices, LLC, Sunnyvale, Calif., USA) and the absorbance was converted to percent radical scavenging activity (% RSA) using the following formula: % RSA=[(Absorbance of the control−Absorbance of the sample)/(Absorbance of the control)]×100.
Free radical production occurs when the immune system is activated and antioxidants represent potential effective treatments for inflammatory conditions and autoimmune diseases. […] The DPPH antioxidant assay can be used to measure the ability of a compound to scavenge free radicals by measuring the ability of compounds to hydrogenate and reduce DPPH. The DPPH assay was conducted on CBCA, CBDA, CBDVA, CBGA, CBLA, CBNA, THCVA, and their decarboxylated derivatives as well as the 1:1 CBD:CBDA mixture.

[3] = test system: animal or human cells grown via tissue culture; settings: cited from earlier work
[4] = test system: cytokines induced in mice by LPS; test: Mouse LPS cytokine animal model (Example 3), cannabinoids in PB with 5% DMSO; format: in vivo; settings: 5 mg/kg
Procedure: This experiment was conducted to compare the ability of CBD, CBDA or the 1:1 equimolar mixture of CBD:CBDA to suppress the induction of cytokines whose expression levels were induced in mice by LPS.
The ability of agents to suppress the immune system can be tested in vivo using an LPS mouse model, in which mice are injected with LPS to cause an immune response (Field et al., 1970; Ghezzi P and Sipe J D, 1988).
Four 20 g female C57BL/6 mice were used per group. The experimental mice were first injected with 0.1 mL of the cannabinoids prepared at 1 mg/mL in phosphate buffer (PB) with 5% DMSO to yield a final dose of 5 mg/kg, followed one hour later by the injection of 0.1 mL of 0.02 mg/mL LPS in PB to yield a final dose of 0.1 mg/kg. Mice injected with 0.1 mL of PB with 5% DMSO and 0.1 mL of PBS served as a non-induced control and mice injected with 0.1 mL of PB with 5% DMSO and 0.1 mL of 0.02 mg/mL LPS in PB served as a LPS untreated control. After allowing two hours for the immune system to be induced by LPS, the mice were then euthanized, heart punctures performed to extract the blood, which was allowed to coagulate on ice for 1 hour before centrifuging to isolate the serum. The levels of 32 of the most common mouse cytokines (Eve Technologies, Calgary, Canada, Table 9) were determined by multi-plex analysis.

[5] = test system: differentiated U-937 cells; test: Human cellular U-937 autophagy induction assay (anti-LC3); format: cell-based; settings: 1.0 μM, 12 hours
Procedure: The induction of autophagy was monitored using anti-LC3 antibodies to detect LC3 on the autophagosome in human U-937 pro-monocytic histiocytic lymphoma cells (ATCC, Manassas, Va., USA), which generate morphologies characteristic of macrophages upon induction by various stimuli. U-937 cells were cultured in RPMI-1640 medium with L-glutamine and sodium bicarbonate (Sigma-Aldrich, St Louis, Mo.) supplemented with 10% fetal bovine serum (FBS) and 1% penicillin in 25 cm2 tissue flasks at 37° C. in a 5% CO2 humidified atmosphere and passaged every 2-3 days. U-937 cells were seeded in 96 well plates at 5×10^5 cells/mL and stimulated with 100 ng/mL PMA to induce differentiation for 24 hours. The cells were then treated with the various cannabinoids at 1.0 μM concentrations for 12 hours. 30 μM chloroquine was used as a positive control. After treatment, the cells were fixed using 3.7% formaldehyde in PBS for 15 minutes at room temperature and washed with PBS to remove the fixative. Permeabilization reagent (0.2% Triton X-100 in PBS) (Sigma-Aldrich) was added, the cells were incubated for 15 minutes at room temperature and then the cells were washed with PBS to remove the permeabilization reagent. LC3B rabbit polyclonal antibody (Invitrogen) was added at a final concentration of 0.5 μg/ml for 1 hour at room temperature and the cells were washed with PBS remove the primary antibody. Secondary conjugated goat anti-rabbit polyclonal antibody (Thermo Scientific) was then added at a final concentration of 2.0 μg/ml for 1 hour at room temperature. The cells were washed, Hoechst dye was added to stain the nucleus and the cells were imaged using an Arrayscan VTI high-content screening (HCS) reader (Thermo Scientific) with the appropriate filters and the data was analyzed using the vHCS Scan software.
Chloroquine at a concentration of 30 μM was included as a positive control. The ability to induce autophagy was determined as a percentage with respect to the untreated control.

[6] = doses up to 100 mg in mice; cited from earlier work
[7] = doses up to 600 mg in humans; cited from earlier work

Compound: C=C(C)[C@@H]1CCC(C)=C[C@H]1c1c(O)cc(CCCCC)cc1O [CBD, 2-[(1R,6R)-6-Isopropenyl-3-methyl-2-cyclohexen-1-yl]-5-pentyl-1,3-benzenediol]
- Average cytokine suppression [1]: 39.62%
- EGF suppression [1]: −5.61%
- FGF-β suppression [1]: 41.85%
- Flt-3L suppression [1]: 60.02%
- G-CSF suppression [1]: 51.32%
- GM-CSF suppression [1]: 45.16%
- IFNγ suppression [1]: 13.71%
- IL-1α suppression [1]: 55.14%
- IL-1β suppression [1]: 71.06%
- IL-4 suppression [1]: 14.63%
- IL-6 suppression [1]: 66.26%
- IL-7 suppression [1]: 18.2%
- IL-10 suppression [1]: 32.42%
- IL-12 p70 suppression [1]: −31.17%
- IL-15 suppression [1]: 62.30%
- IL-18 suppression [1]: 56.90%
- IP-10 suppression [1]: 67.08%
- MCP-1 suppression [1]: 43.90%
- MIP-1β suppression [1]: 31.85%
- TNFα suppression [1]: 29.05%
- TNFβ suppression [1]: 68.24%
- effectiveness at reducing elevated cytokine levels relative to dexamethasone [2]: at least half as effective as dexamethasone
- inhibition at 2 µM ([2]; Homo sapiens, THP-1, 4 h, read-out: % Cytokine Suppression (total averaged)): 33.1%
- radical scavenging activity compared to the untreated control (DPPH antioxidant assay): at least two-fold
- % RSA (radical scavenging activity) (DPPH antioxidant assay; 1 hour): 48.00%
- dose that can cause significant cytotoxicity [3]: less than 5 μM
- Average cytokine suppression [4]: 12.86%
- GM-CSF suppression [4]: 34.53%
- IFNγ suppression [4]: −0.19%
- IL-1β suppression [4]: 10.58%
- IL-2 suppression [4]: −0.09%
- IL-6 suppression [4]: 4.49%
- IL-12β p40 suppression [4]: 34.89%
- IL-13 suppression [4]: 6.38%
- IL-17 suppression [4]: 7.51%
- IP-10 suppression [4]: 1.72%
- KC suppression [4]: 7.85%
- LIF suppression [4]: 25.24%
- M-CSF suppression [4]: 7.70%
- MIP-1α suppression [4]: 6.69%
- MIP-1β suppression [4]: −0.77%
- MIP-2 suppression [4]: 34.56%
- TNF-α suppression [4]: 24.74%
- Fluorescence (LC3) [5]: 45.43
- activation at 1 µM ([5]; Homo sapiens, U-937, read-out: Induction of autophagy with respect to the untreated control): -5.84%
- adverse side effects [6]: no adverse side effects
- adverse side effects [7]: no adverse side effects
